Reference: patent US20100210700A1, “METHODS OF TREATMENT USING INTRAVENOUS FORMULATIONS COMPRISING TEMOZOLOMIDE” (SCHERING CORPORATION, priority 2007, published 2010)
Where two headings read alike, the source gives them in different places.

Legend:
[1] = PO TMZ, Dose = 150 mg/m^2, Actual n = 12; cited from earlier work
[2] = Two-way crossover pilot bioavailability study, IV (1-hour infusion) vs PO temozolomide; assay type: in vivo, human; settings: for bioavailability / AUC / Cmax: human, plasma; for bioavailability: po, 150 mg/m^2/day, humans, n=13 patients; for AUC / Cmax: n = 13
Description: To validate the IV PK model, the first pass effects and oral bioavailability were determined in a two-way crossover pilot bioavailability study. This was a Phase-1, randomized, open-label pilot study designed to compare the relative bioavailability of IV and PO temozolomide in adult patients with histologically confirmed primary CNS malignancies. The study was conducted in conformance with Good Clinical Practices. Up to 18 patients (to yield 12 evaluable patients) were planned to be enrolled at 1 or 2 centers. 13 patients were enrolled at 2 centers (7 at Center 1, 6 at Center 2). All 13 patients were included in pharmacokinetic and safety analyses. Patients were followed for 23 days after treatment ended for safety evaluations.
After fulfilling all study eligibility requirements, the patients received temozolomide for 5 days (Days 1 to 5) during a 4-week treatment cycle. On Days 1, 2, and 5, patients received temozolomide (200 mg/m^2/day) as a PO dose. On Days 3 and 4, patients received Temozolomide (150 mg/m^2/day) as a PO dose on one day and as an IV dose on the other day. The IV dose was administered by 1-hour infusion (using an infusion pump) either on Day 3 or Day 4 according to a random code. Pharmacokinetic evaluations were performed on Days 3 and 4 for determination of concentrations of temozolomide and MTIC in plasma.

[3] = Clinical bioequivalence study, IV (1.5-hr infusion) vs oral TMZ, primary CNS malignancies; assay type: in vivo, human; settings: for Tmax / half-life / AUC / Cmax / concentration at 0 hr / concentration at 0.25 hr / concentration at 0.5 hr / concentration at 1 hr / concentration at 1.25 hr / concentration at 1.5 hr / concentration at 1.75 hr / concentration at 2 hr / concentration at 2.5 hr / concentration at 3 hr / concentration at 4 hr / concentration at 6 hr / concentration at 8 hr: human, plasma; for Tmax: read-out: Tmax, Median (range); for half-life: read-out: t½ terminal-phase half-life, Mean (CV, %) (converted); for concentration at 0 hr / concentration at 0.25 hr / concentration at 0.5 hr / concentration at 1 hr / concentration at 1.25 hr / concentration at 1.5 hr / concentration at 1.75 hr / concentration at 2 hr / concentration at 2.5 hr / concentration at 3 hr / concentration at 4 hr / concentration at 6 hr / concentration at 8 hr: read-out: Mean Temozolomide Concentration
Description: Twenty-two patients with primary CNS malignancies were enrolled in a clinical bioequivalence study and treated according to the methods of the present invention. Nineteen of the patients were considered to be pharmacokinetic evaluable. This study was a randomized, open-label, 2-way cross over study of the PK of oral and IV TMZ. The IV formulation of Example 3 is administered at a dosage of 150-200 mg/m^2 by intravenous infusion over a period of about 1.5 hours.
The patients are divided into two groups, those receiving Treatment A and those receiving Treatment B. The Treatment A patients receive oral TMZ (200 mg/m^2) on Days 1, 2 and 5, IV TMZ 150 mg/m2 on Day 3, and oral TMZ (150 mg/m^2) on Day 4 of a 28 day cycle. The Treatment B patients receive oral TMZ (200 mg/m^2) on Days 1, 2 and 5, Oral TMZ (150 mg/m^2) on Day 3 and IV TMZ (150 mg/m^2) on Day 4 of a 28 day cycle. Cmax and AUC for TMZ and MTIC are determined according to methods known to those skilled in the art on Days 3 and 4.

[4] = 1-hour infusion vs PO, 150 mg/m2/day
[5] = 1.5-hr infusion vs PO, 150 mg/m^2/day, n = 19
[6] = TMZ IV 1.5 hr infusion, 150 mg/m^2/day, n = 19
[7] = 150 mg/m2, TMZ PO, 150 mg/m^2/day, n = 19
[8] = IV 1.5 hr infusion, 150 mg/m^2/day, n = 19
[9] = IV 1.5 hr infusion, 150 mg/m^2/day, n = 18

AUC Ratio Estimate IV/PO [2, 4]: 104%
AUC ratio IV/PO, 90% C.I. [2, 4]: 97-112%
Cmax Ratio Estimate IV/PO [2, 4]: 114%
Cmax ratio IV/PO, 90% C.I. [2, 4]: 100-131%
bioavailability ([2]; read-out: oral bioavailability): 96%
bioavailability ([2]; read-out: oral bioavailability, range): 89 to 100%
AUC ([2]; TMZ IV 1-hour infusion, 150 mg/m2/day, read-out: AUC of TMZ, IV Mean (least-squares)): 21500 ng·h/mL
Cmax ([2]; TMZ IV 1-hour infusion, 150 mg/m2/day, read-out: Cmax of TMZ, IV Mean (least-squares)): 7100 ng/mL
AUC ([2]; TMZ PO, 150 mg/m2/day, read-out: AUC of TMZ, PO Mean (least-squares)): 20700 ng·h/mL
Cmax ([2]; TMZ PO, 150 mg/m2/day, read-out: Cmax of TMZ, PO Mean (least-squares)): 6200 ng/mL
AUC(I) Ratio Estimate IV to PO [3, 5]: 105%
AUC(I) ratio IV to PO, 90% Confidence Interval [3, 5]: 102-108%
AUC(tf) Ratio Estimate IV to PO [3, 5]: 106%
AUC(tf) ratio IV to PO, 90% Confidence Interval [3, 5]: 103-109%
Cmax Ratio Estimate IV to PO [3, 5]: 97%
Cmax ratio IV to PO, 90% Confidence Interval [3, 5]: 91-102%
bioequivalence of IV (1.5-hr infusion) and oral formulations ([3]; Cmax, AUC(tf), AUC(I) of temozolomide and MTIC, n=19): bioequivalent
tf time of final quantifiable sample, Mean (CV, %) [3, 6]: 8.00 (0) hr
tf time of final quantifiable sample, Mean (CV, %) ([3]; TMZ PO, 150 mg/m^2/day, n = 19): 8.00 (0) hr
Tmax [3, 7]: 1 h
half-life [3, 7]: 1.91 h
AUC ([3]; iv, 150 mg/m2, IV infusion about 1 hour to about 2 hours, single dose of 150 mg/m2, read-out: arithmetic AUC (from time zero to infinity) for temozolomide, range): 17600 to 37000 ng·h/mL
Cmax ([3]; iv, 150 mg/m2, IV infusion about 1 hour to about 2 hours, single dose of 150 mg/m2, read-out: arithmetic maximum plasma concentration (Cmax) of temozolomide, range): 5500 to 10600 ng/mL
AUC ([3]; iv, 150 mg/m2, IV infusion about 1 hour to about 2 hours, single dose of 150 mg/m2, read-out: arithmetic mean AUC (from time zero to infinity) for temozolomide): ~25000 ng·h/mL
Cmax ([3]; iv, 150 mg/m2, IV infusion about 1 hour to about 2 hours, single dose of 150 mg/m2, read-out: arithmetic mean maximum plasma concentration (Cmax) of temozolomide): ~7400 ng/mL
AUC ([3]; iv, 150 mg/m2, arithmetic mean AUC (from time zero to infinity) for temozolomide, IV infusion about 1 hour to about 2 hours, single dose of 150 mg/m2, heading: arithmetic mean AUC for temozolomide): ~25000 ng·h/mL
AUC ([3]; iv, 150 mg/m^2/day, TMZ IV 1.5 hr infusion, 150 mg/m^2/day, n = 19, read-out: AUC(I) of TMZ, Mean): 25000 ng·h/mL
AUC ([3]; iv, 150 mg/m^2/day, TMZ IV 1.5 hr infusion, 150 mg/m^2/day, n = 19, read-out: AUC(tf) of TMZ, Mean): 23400 ng·h/mL
Cmax ([3]; iv, 150 mg/m^2/day, TMZ IV 1.5 hr infusion, 150 mg/m^2/day, n = 19, read-out: Cmax of TMZ, arithmetic Mean): 7440 ng/mL
AUC ([3]; iv, 150 mg/m^2/day, TMZ IV 1.5 hr infusion, 150 mg/m^2/day, n = 19 PE, read-out: AUC(I) of TMZ, IV Mean (least-squares)): 24600 ng·h/mL
AUC ([3]; iv, 150 mg/m^2/day, TMZ IV 1.5 hr infusion, 150 mg/m^2/day, n = 19 PE, read-out: AUC(tf) of TMZ, IV Mean (least-squares)): 23100 ng·h/mL
Cmax ([3]; iv, 150 mg/m^2/day, TMZ IV 1.5 hr infusion, 150 mg/m^2/day, n = 19 PE, read-out: Cmax of TMZ, IV Mean (least-squares)): 7290 ng/mL
AUC ([3]; po, 150 mg/m2, TMZ PO, 150 mg/m^2/day, n = 19, read-out: AUC(I) of TMZ, Mean): 23600 ng·h/mL
AUC ([3]; po, 150 mg/m2, TMZ PO, 150 mg/m^2/day, n = 19, read-out: AUC(tf) of TMZ, Mean): 22000 ng·h/mL
Cmax ([3]; po, 150 mg/m2, TMZ PO, 150 mg/m^2/day, n = 19, read-out: Cmax of TMZ, arithmetic Mean): 7680 ng/mL
AUC ([3]; po, 150 mg/m2, TMZ PO, 150 mg/m^2/day, n = 19 PE, read-out: AUC(I) of TMZ, PO Mean (least-squares)): 23400 ng·h/mL
AUC ([3]; po, 150 mg/m2, TMZ PO, 150 mg/m^2/day, n = 19 PE, read-out: AUC(tf) of TMZ, PO Mean (least-squares)): 21800 ng·h/mL
Cmax ([3]; po, 150 mg/m2, TMZ PO, 150 mg/m^2/day, n = 19 PE, read-out: Cmax of TMZ, PO Mean (least-squares)): 7540 ng/mL
concentration at 0 hr [3, 8]: 0 ng/mL
concentration at 0.25 hr [3, 9]: 2380 ng/mL
concentration at 0.5 hr [3, 8]: 3670 ng/mL
concentration at 1 hr [3, 8]: 5490 ng/mL
concentration at 1.25 hr [3, 9]: 6590 ng/mL
concentration at 1.5 hr [3, 8]: 7080 ng/mL
concentration at 1.75 hr [3, 8]: 6100 ng/mL
concentration at 2 hr [3, 8]: 5600 ng/mL
concentration at 2.5 hr [3, 8]: 4590 ng/mL
concentration at 3 hr [3, 9]: 3860 ng/mL
concentration at 4 hr [3, 8]: 2810 ng/mL
concentration at 6 hr [3, 8]: 1200 ng/mL
concentration at 8 hr [3, 8]: 590 ng/mL
concentration at 0 hr ([3]; PO, 150 mg/m^2/day, n = 19): 0 ng/mL
concentration at 0.25 hr ([3]; PO, 150 mg/m^2/day, n = 19): 2110 ng/mL
concentration at 0.5 hr ([3]; PO, 150 mg/m^2/day, n = 19): 5320 ng/mL
concentration at 1 hr ([3]; PO, 150 mg/m^2/day, n = 19): 6050 ng/mL
concentration at 1.25 hr ([3]; PO, 150 mg/m^2/day, n = 18): 6120 ng/mL
concentration at 1.5 hr ([3]; PO, 150 mg/m^2/day, n = 19): 5770 ng/mL
concentration at 1.75 hr ([3]; PO, 150 mg/m^2/day, n = 18): 5360 ng/mL
concentration at 2 hr ([3]; PO, 150 mg/m^2/day, n = 19): 4890 ng/mL
concentration at 2.5 hr ([3]; PO, 150 mg/m^2/day, n = 19): 4000 ng/mL
concentration at 3 hr ([3]; PO, 150 mg/m^2/day, n = 19): 3440 ng/mL
concentration at 4 hr ([3]; PO, 150 mg/m^2/day, n = 19): 2410 ng/mL
concentration at 6 hr ([3]; PO, 150 mg/m^2/day, n = 19): 1170 ng/mL
concentration at 8 hr ([3]; PO, 150 mg/m^2/day, n = 19): 560 ng/mL
Tmax [3, 6]: 1.5 h
half-life [3, 6]: 1.82 h
Structure (SMILES): Cn1nnc2c(C(N)=O)ncn2c1=O [TMZ, 3,4-dihydro-3-methyl-4-oxoimidazo[5,1-d]-as-tetrazine-8-carboxamide]
Maximum AUC [1]: 35400 ng·h/mL
Maximum Cmax [1]: 16800 ng/mL
Mean AUC [1]: 24800 ng·h/mL
Mean Cmax [1]: 8800 ng/mL
Minimum AUC [1]: 17700 ng·h/mL
Minimum Cmax [1]: 2600 ng/mL
